Measurements: patent US20230293526A1, “METHOD FOR TREATING CANCER WITH A REVERSE TRANSCRIPTASE INHIBITOR” (PrimeFour Therapeutics, Inc., priority 2020, published 2023)

What was measured:
[1] = system: cancer cell lines; assay: Cancer cell proliferation activity of representative nucleosides, CellTiterGlo 72 h (Example 7, Tables 8 and 9); type: cell-based; conditions: 72 h
Procedure, shortened: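 Percent viability was set against 0.1% DMSO (100%) and 10 μM staurosporine (0%), with signal from CellTiterGlo luminescence. Dose-response treatment began one day after seeding and lasted 72 h at 37° C under 5% or 10% CO2, with 0.1% final DMSO.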

[2] = system: human LINE-1; assay: Human LINE-1 (L1) retrotransposition dual-luciferase reporter assay in HeLa cells; type: cell-based; conditions: Homo sapiens, HeLa, 72 h, read-out: Human LINE-1 IC50 (Human L1 activity inhibition)
Procedure, shortened: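 Compound dilution series (final DMSO 0.2%) added right after transfecting HeLa cells with the pYX017 L1 dual-luciferase reporter; 72 h culture at 37 °C, 5% CO2, triplicates. IC50 fitted by non-linear logistic regression to firefly-to-Renilla luminescence ratio (×10,000).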

Compound: CC[C@]1(CO)O[C@@H](n2ccc(N)nc2=O)C[C@@H]1O [compound 21, 4-amino-1-((2R,4S,5R)-5-ethyl-4-hydroxy-5-(hydroxymethyl)tetrahydrofuran-2-yl)pyrimidin-2(1H)-one]
- IC50 ([1]; 72 h, 5637, bladder): > 50 µM
- IC50 ([1]; CLS439, bladder): > 50 µM
- IC50 ([1]; HS729, muscle): > 50 µM
- IC50 ([1]; J82, bladder): > 50 µM
- IC50 ([1]; JAR, placenta): > 50 µM
- IC50 ([1]; MT3, breast): 3.29 µM
- IC50 ([1]; PC3, prostate): > 50 µM
- IC50 ([1]; RD, muscle): > 50 µM
- IC50 ([1]; T24, bladder): 3.46 µM
- IC50 ([1]; Homo sapiens, 22Rv1, 72 h, 22RV1, prostate): > 50 µM
- IC50 ([1]; Homo sapiens, 786-0, 72 h, 786O, kidney): > 50 µM
- IC50 ([1]; Homo sapiens, A204, 72 h, A204, muscle): 0.27 µM
- IC50 ([1]; Homo sapiens, A549, 72 h, A549, lung): 5.54 µM
- IC50 ([1]; Homo sapiens, A673, 72 h, A673, bone): > 50 µM
- IC50 ([1]; Homo sapiens, A2780, 72 h, A2780, ovary): > 50 µM
- IC50 ([1]; Homo sapiens, A-375, 72 h, A375, skin): > 50 µM
- IC50 ([1]; Homo sapiens, A-431, 72 h, A431, skin): > 50 µM
- IC50 ([1]; Homo sapiens, ACHN, kidney): 2.74 µM
- IC50 ([1]; Homo sapiens, ASPC1, 72 h, ASPC1, pancreas): > 50 µM
- IC50 ([1]; Homo sapiens, BT-20, 72 h, BT20, breast): > 50 µM
- IC50 ([1]; Homo sapiens, BXPC-3, 72 h, BXPC3, pancreas): > 50 µM
- IC50 ([1]; Homo sapiens, C-33-A, C33A, endometrial): 6.53 µM
- IC50 ([1]; Homo sapiens, CAKI-1, 72 h, CAKI1, kidney): 1.49 µM
- IC50 ([1]; Homo sapiens, COLO 205, 72 h, COLO205, colon): 3.44 µM
- IC50 ([1]; Homo sapiens, COLO-678, 72 h, COLO678, colon): > 50 µM
- IC50 ([1]; Homo sapiens, Ca-Ski, CASKI, endometrial): > 50 µM
- IC50 ([1]; Homo sapiens, Caco-2, 72 h, CACO2, colon): > 50 µM
- IC50 ([1]; Homo sapiens, Calu-6, 72 h, CALU6, lung): > 50 µM
- IC50 ([1]; Homo sapiens, DLD-1, 72 h, DLD1, colon): > 50 µM
- IC50 ([1]; Homo sapiens, DU-145, 72 h, DU145, prostate): > 50 µM
- IC50 ([1]; Homo sapiens, EFO-21, 72 h, EFO21, ovary): > 50 µM
- IC50 ([1]; Homo sapiens, EJ-28, 72 h, EJ28, bladder): > 50 µM
- IC50 ([1]; Homo sapiens, Granta-519, 72 h, GRANTA-519, hematological): 1.61 µM
- IC50 ([1]; Homo sapiens, HCT-15, 72 h, HCT15, colon): 9.11 µM
- IC50 ([1]; Homo sapiens, HCT-116, 72 h, HCT116, colon): 3.01 µM
- IC50 ([1]; Homo sapiens, HEK293, 72 h, HEK293, kidney): > 50 µM
- IC50 ([1]; Homo sapiens, HL-60, 72 h, HL-60, hematological): > 50 µM
- IC50 ([1]; Homo sapiens, HT-29, 72 h, HT29, colon): > 50 µM
- IC50 ([1]; Homo sapiens, HT-1080, 72 h, HT1080, connective tissue): > 50 µM
- IC50 ([1]; Homo sapiens, HeLa, endometrial): > 50 µM
- IC50 ([1]; Homo sapiens, HepG2, 72 h, HEPG2, liver): > 50 µM
- IC50 ([1]; Homo sapiens, Hs-578T, HS578T, breast): > 50 µM
- IC50 ([1]; Homo sapiens, IGROV-1, 72 h, IGROV1, ovary): > 50 µM
- IC50 ([1]; Homo sapiens, IMR-90, 72 h, IMR90, lung): > 50 µM
- IC50 ([1]; Homo sapiens, JEG-3, 72 h, JEG3, placenta): > 50 µM
- IC50 ([1]; Homo sapiens, JIMT-1, 72 h, JIMT1, breast): > 50 µM
- IC50 ([1]; Homo sapiens, K562, 72 h, K-562, hematological): > 50 µM
- IC50 ([1]; Homo sapiens, Kasumi 1, 72 h, KASUMI-1, hematological): > 50 µM
- IC50 ([1]; Homo sapiens, L-363, 72 h, L-363, hematological): > 50 µM
- IC50 ([1]; Homo sapiens, LoVo, colon): > 50 µM
- IC50 ([1]; Homo sapiens, MCF7, 72 h, MCF7, breast): > 50 µM
- IC50 ([1]; Homo sapiens, MDA-MB-231, 72 h, MDAMB231, breast): 2.85 µM
- IC50 ([1]; Homo sapiens, MDA-MB-435, 72 h, MDAMB435, skin): > 50 µM
- IC50 ([1]; Homo sapiens, MDA-MB-436, 72 h, MDAMB436, breast): > 50 µM
- IC50 ([1]; Homo sapiens, MDA-MB-468, 72 h, MDAMB468, breast): > 50 µM
- IC50 ([1]; Homo sapiens, MG-63, 72 h, MG63, bone): > 50 µM
- IC50 ([1]; Homo sapiens, MHH-ES-1, 72 h, MHHES1, bone): > 50 µM
- IC50 ([1]; Homo sapiens, MIA PaCa-2, 72 h, MIAPACA2, pancreas): > 50 µM
- IC50 ([1]; Homo sapiens, MINO, hematological): 1.3 µM
- IC50 ([1]; Homo sapiens, MV4-11, 72 h, MV4-11, hematological): 4.39 µM
- IC50 ([1]; Homo sapiens, NCI-H23, 72 h, NCI-H23, lung): > 50 µM
- IC50 ([1]; Homo sapiens, NCI-H82, 72 h, NCIH82, lung): > 50 µM
- IC50 ([1]; Homo sapiens, NCI-H292, 72 h, NCIH292, lung): 4.62 µM
- IC50 ([1]; Homo sapiens, NCI-H460, 72 h, NCIH460, ung): 4.01 µM
- IC50 ([1]; Homo sapiens, OVCAR-3, 72 h, OVCAR3, ovary): > 50 µM
- IC50 ([1]; Homo sapiens, OVCAR-4, 72 h, OVCAR4, ovary): > 50 µM
- IC50 ([1]; Homo sapiens, PANC-1, 72 h, PANC1, pancreas): > 50 µM
- IC50 ([1]; Homo sapiens, PLC-PRF-5, 72 h, PLCPRF5, liver): > 50 µM
- IC50 ([1]; Homo sapiens, Panc1005, 72 h, PANC1005, pancreas): > 50 µM
- IC50 ([1]; Homo sapiens, Ramos, hematological): 1.72 µM
- IC50 ([1]; Homo sapiens, SAOS-2, 72 h, SAOS2, bone): > 50 µM
- IC50 ([1]; Homo sapiens, SF-268, 72 h, SF268, brain): > 50 µM
- IC50 ([1]; Homo sapiens, SF-295, 72 h, SF295, brain): > 50 µM
- IC50 ([1]; Homo sapiens, SK-BR-3, 72 h, SKBR3, breast): > 50 µM
- IC50 ([1]; Homo sapiens, SK-HEP1, 72 h, SKHEP1, liver): > 50 µM
- IC50 ([1]; Homo sapiens, SK-LMS-1, 72 h, SKLMS1, uterus): > 50 µM
- IC50 ([1]; Homo sapiens, SK-MEL-5, 72 h, SKMEL5, skin): > 50 µM
- IC50 ([1]; Homo sapiens, SK-MEL-28, 72 h, SKMEL28, skin): > 50 µM
- IC50 ([1]; Homo sapiens, SK-N-AS, SKNAS, brain): > 50 µM
- IC50 ([1]; Homo sapiens, SK-N-SH, SKNSH, brain): > 50 µM
- IC50 ([1]; Homo sapiens, SK-OV-3, 72 h, SKOV3, ovary): > 50 µM
- IC50 ([1]; Homo sapiens, SNB-75, 72 h, SNB75, brain): > 50 µM
- IC50 ([1]; Homo sapiens, SU-DHL10, 72 h, SU-DHL-10, hematological): > 50 µM
- IC50 ([1]; Homo sapiens, SU-DHL-6, 72 h, SU-DHL-6, hematological): 3.8 µM
- IC50 ([1]; Homo sapiens, SW-620, 72 h, SW620, colon): > 50 µM
- IC50 ([1]; Homo sapiens, TE-671, 72 h, TE671, muscle): > 50 µM
- IC50 ([1]; Homo sapiens, THP-1, 72 h, THP-1, hematological): > 50 µM
- IC50 ([1]; Homo sapiens, U2OS, bone): > 50 µM
- IC50 ([1]; Homo sapiens, U-87 MG, U87MG, brain): > 50 µM
- IC50 ([1]; Homo sapiens, UMUC3, 72 h, UMUC3, bladder): > 50 µM
- IC50 ([1]; Homo sapiens, UO-31, 72 h, UO31, kidney): 9.45 µM
- IC50 ([1]; Homo sapiens, WSU-NHL, hematological): 2.82 µM
- IC50 ([1]; NCI-H358M, NCIH358M, lung): 1.49 µM
- IC50 ([1]; PBMC, hematological): 11.8 µM
- IC50 ([1]; RD-ES, RDES, bone): > 50 µM
- IC50 [2]: 0.043 µM
